# Results taken from ChEMBL document CHEMBL3044741, “Synthesis of novel biologically active methylene derivatives of sydnones” (Med Chem Res, 2013).
# How the values were obtained:
# Candida albicans [1] = assay: Antifungal activity against Candida albicans MTCC 227; assay type: functional
# Cytomegalovirus [2] = assay: Antiviral activity against Cytomegalovirus Davis in HEL cells assessed as reduction in plaque formation; assay type: functional, organism-based; details: Human betaherpesvirus 5, Davis
# [3] = Cytotoxicity against human HEL cells assessed as alteration in cell morphology; assay type: cell-based
# Human alphaherpesvirus 3 [4] = assay: Antiviral activity against thymidine kinase-deficient Varicella-zoster virus infected in HEL cells assessed as reduction in plaque formation; assay type: functional, organism-based; details: Human alphaherpesvirus 3, HEL
# [5] = Cytotoxicity against human HEL cells; assay type: cell-based
# [6] = Selectivity index, ratio of CC50 for human MT4 cells to IC50 for HIV2 ROD; assay type: functional
# [7] = tested on: Human immunodeficiency virus 1; assay: Antiviral activity against HIV1 3B infected in MT4 cells assessed as inhibition of virus-induced cytopathogenicity by MTT assay; assay type: functional, organism-based; details: Human immunodeficiency virus 1, 3B
# Aspergillus clavatus [8] = assay: Antifungal activity against Aspergillus clavatus MTCC 1323 at 250 ug/ml after 74 hrs by Kirby-Bauer method; assay type: functional; details: MTCC 1323, 74 h, read-out: IZ
# Escherichia coli [9] = assay: Antibacterial activity against Escherichia coli MTCC 443 after 24 hrs by broth dilution method; assay type: functional; details: MTCC 443, 24 h
# [10] = Selectivity index, ratio of CC50 for human MT4 cells to IC50 for HIV1 3B; assay type: functional
# Candida albicans [11] = assay: Antifungal activity against Candida albicans MTCC 227 at 250 ug/ml after 74 hrs by Kirby-Bauer method; assay type: functional; details: MTCC 227, 74 h, read-out: IZ
# Pseudomonas aeruginosa [12] = assay: Antibacterial activity against Pseudomonas aeruginosa MTCC 424 at 250 ug/ml after 24 hrs by Kirby-Bauer method; assay type: functional; details: MTCC 424, 24 h, read-out: IZ
# Cytomegalovirus [13] = assay: Antiviral activity against Cytomegalovirus AD-169 infected in HEL cells assessed as reduction in plaque formation; assay type: functional, organism-based; details: Human betaherpesvirus 5, AD-169, HEL
# Staphylococcus aureus [14] = assay: Antibacterial activity against Staphylococcus aureus MTCC 96 at 250 ug/ml after 24 hrs by Kirby-Bauer method; assay type: functional; details: MTCC 96, 24 h, read-out: IZ
# [15] = tested on: Human immunodeficiency virus 2; assay: Antiviral activity against HIV2 ROD infected in MT4 cells assessed as inhibition of virus-induced cytopathogenicity by MTT assay; assay type: functional, organism-based; details: Human immunodeficiency virus 2, ISOLATE ROD
# Pseudomonas aeruginosa [16] = assay: Antibacterial activity against Pseudomonas aeruginosa MTCC 424 after 24 hrs by broth dilution method; assay type: functional; details: MTCC 424, 24 h
# Escherichia coli [17] = assay: Antibacterial activity against Escherichia coli MTCC 443 at 250 ug/ml after 24 hrs by Kirby-Bauer method; assay type: functional; details: MTCC 443, 24 h, read-out: IZ
# Aspergillus niger [18] = assay: Antifungal activity against Aspergillus niger MTCC 282; assay type: functional
# Staphylococcus aureus [19] = assay: Antibacterial activity against Staphylococcus aureus MTCC 96 after 24 hrs by broth dilution method; assay type: functional; details: MTCC 96, 24 h
# Streptococcus pyogenes [20] = assay: Antibacterial activity against Streptococcus pyogenes MTCC 442 at 250 ug/ml after 24 hrs by Kirby-Bauer method; assay type: functional; details: MTCC 442, 24 h, read-out: IZ
# [21] = Cytotoxicity against human MT4 cells by MTT assay; assay type: cell-based
# Human alphaherpesvirus 3 [22] = assay: Antiviral activity against Varicella-zoster virus Oka expressing thymidine kinase infected in HEL cells assessed as reduction in plaque formation; assay type: functional, organism-based; details: Human alphaherpesvirus 3, strain Oka vaccine
# Streptococcus pyogenes [23] = assay: Antibacterial activity against Streptococcus pyogenes MTCC 442 after 24 hrs by broth dilution method; assay type: functional; details: MTCC 442, 24 h
# Aspergillus clavatus [24] = assay: Antifungal activity against Aspergillus clavatus MTCC 1323; assay type: functional
# Aspergillus niger [25] = assay: Antifungal activity against Aspergillus niger MTCC 282 at 250 ug/ml after 74 hrs by Kirby-Bauer method; assay type: functional; details: MTCC 282, 74 h, read-out: IZ
Structure (SMILES),MIC (Candida albicans [1]),EC50 (Cytomegalovirus [2]),MCC [3],EC50 (Human alphaherpesvirus 3 [4]),CC50 [5],Ratio CC50/IC50 [6],IC50 [7],zone of inhibition at 250 µg/mL (Aspergillus clavatus [8]),MIC (Escherichia coli [9]),Ratio CC50/IC50 [10],zone of inhibition at 250 µg/mL (Candida albicans [11]),zone of inhibition at 250 µg/mL (Pseudomonas aeruginosa [12]),EC50 (Cytomegalovirus [13]),zone of inhibition at 250 µg/mL (Staphylococcus aureus [14]),IC50 [15],MIC (Pseudomonas aeruginosa [16]),zone of inhibition at 250 µg/mL (Escherichia coli [17]),MIC (Aspergillus niger [18]),MIC (Staphylococcus aureus [19]),zone of inhibition at 250 µg/mL (Streptococcus pyogenes [20]),also measured
CN1CCN(Cc2c([O-])on[n+]2-c2ccc(Cc3ccc(-[n+]4noc([O-])c4CN4CCN(C)C(c5ccccc5)C4)cc3)cc2)CC1c1ccccc1 (stereo not given),500 µg/mL,> 20 µg/mL,100 µg/mL,> 20 µg/mL,36.8 µg/mL,<1,> 14 µg/mL,23 mm,100 µg/mL,<1,18 mm,18 mm,> 20 µg/mL,16 mm,> 14 µg/mL,250 µg/mL,21 mm,1000 µg/mL,500 µg/mL,18 mm,CC50 [21]: 14 µg/mL; EC50 (Human alphaherpesvirus 3 [22]): > 20 µg/mL; MIC (Streptococcus pyogenes [23]): 250 µg/mL; MIC (Aspergillus clavatus [24]): 500 µg/mL; zone of inhibition at 250 µg/mL (Aspergillus niger [25]): 20 mm
Cc1ccc(-[n+]2noc([O-])c2CN2CCCCC2)cc1,250 µg/mL,> 20 µg/mL,100 µg/mL,> 20 µg/mL,28.5 µg/mL,<1,> 18.7 µg/mL,25 mm,100 µg/mL,<1,21 mm,21 mm,> 20 µg/mL,16 mm,> 18.7 µg/mL,250 µg/mL,21 mm,500 µg/mL,500 µg/mL,18 mm,CC50 [21]: 18.7 µg/mL; EC50 (Human alphaherpesvirus 3 [22]): > 20 µg/mL; MIC (Streptococcus pyogenes [23]): 200 µg/mL; MIC (Aspergillus clavatus [24]): 250 µg/mL; zone of inhibition at 250 µg/mL (Aspergillus niger [25]): 24 mm
[O-]c1on[n+](-c2ccc(Cc3ccc(-[n+]4noc([O-])c4CN4CCN(C5=Nc6ccccc6Sc6ccccc65)CC4)cc3)cc2)c1CN1CCN(C2=Nc3ccccc3Sc3ccccc32)CC1,500 µg/mL,> 20 µg/mL,100 µg/mL,> 4 µg/mL,13.8 µg/mL,<1,> 11.6 µg/mL,23 mm,250 µg/mL,<1,25 mm,21 mm,> 20 µg/mL,23 mm,> 11.6 µg/mL,125 µg/mL,19 mm,1000 µg/mL,62.5 µg/mL,18 mm,CC50 [21]: 11.6 µg/mL; EC50 (Human alphaherpesvirus 3 [22]): > 4 µg/mL; MIC (Streptococcus pyogenes [23]): 250 µg/mL; MIC (Aspergillus clavatus [24]): 500 µg/mL; zone of inhibition at 250 µg/mL (Aspergillus niger [25]): 18 mm
CC(=O)N1CCN(Cc2c([O-])on[n+]2-c2ccc(C)cc2)CC1,200 µg/mL,> 20 µg/mL,100 µg/mL,> 20 µg/mL,24.9 µg/mL,<1,> 17.3 µg/mL,24 mm,250 µg/mL,<1,22 mm,17 mm,> 20 µg/mL,17 mm,> 17.3 µg/mL,500 µg/mL,19 mm,200 µg/mL,500 µg/mL,21 mm,CC50 [21]: 17.3 µg/mL; EC50 (Human alphaherpesvirus 3 [22]): > 20 µg/mL; MIC (Streptococcus pyogenes [23]): 100 µg/mL; MIC (Aspergillus clavatus [24]): 200 µg/mL; zone of inhibition at 250 µg/mL (Aspergillus niger [25]): 26 mm
[O-]c1on[n+](-c2ccc(Cc3ccc(-[n+]4noc([O-])c4CN4CCN(c5ccccc5)CC4)cc3)cc2)c1CN1CCN(c2ccccc2)CC1,250 µg/mL,> 20 µg/mL,≥ 20 µg/mL,> 4 µg/mL,12 µg/mL,<1,> 10.3 µg/mL,25 mm,125 µg/mL,<1,21 mm,22 mm,> 4 µg/mL,17 mm,> 10.3 µg/mL,100 µg/mL,20 mm,1000 µg/mL,500 µg/mL,18 mm,CC50 [21]: 10.3 µg/mL; EC50 (Human alphaherpesvirus 3 [22]): > 4 µg/mL; MIC (Streptococcus pyogenes [23]): 200 µg/mL; MIC (Aspergillus clavatus [24]): 250 µg/mL; zone of inhibition at 250 µg/mL (Aspergillus niger [25]): 20 mm
Cc1ccc(-[n+]2noc([O-])c2CN2CCN(C)C(c3ccccc3)C2)cc1 (stereo not given),200 µg/mL,> 20 µg/mL,100 µg/mL,> 20 µg/mL,23.7 µg/mL,<1,> 14.4 µg/mL,21 mm,500 µg/mL,<1,18 mm,21 mm,> 20 µg/mL,19 mm,> 14.4 µg/mL,100 µg/mL,16 mm,1000 µg/mL,250 µg/mL,21 mm,CC50 [21]: 14.4 µg/mL; EC50 (Human alphaherpesvirus 3 [22]): > 20 µg/mL; MIC (Streptococcus pyogenes [23]): 100 µg/mL; MIC (Aspergillus clavatus [24]): 200 µg/mL; zone of inhibition at 250 µg/mL (Aspergillus niger [25]): 18 mm
Cc1ccc(-[n+]2noc([O-])c2CN2CCOCC2)cc1,500 µg/mL,> 20 µg/mL,100 µg/mL,> 20 µg/mL,38.4 µg/mL,<1,> 16.6 µg/mL,21 mm,200 µg/mL,<1,23 mm,18 mm,> 20 µg/mL,21 mm,> 16.6 µg/mL,250 µg/mL,19 mm,1000 µg/mL,100 µg/mL,19 mm,CC50 [21]: 16.6 µg/mL; EC50 (Human alphaherpesvirus 3 [22]): > 20 µg/mL; MIC (Streptococcus pyogenes [23]): 250 µg/mL; MIC (Aspergillus clavatus [24]): 500 µg/mL; zone of inhibition at 250 µg/mL (Aspergillus niger [25]): 18 mm
